Measured values taken from patent publication US20170239323A1, “ORITAVANCIN FORMULATIONS” (The Medicines Company, priority 2016, published 2017).

Test: pH adjustment of oritavancin/HPCD solution with 1N NaOH: visual observations
Format: physicochemical
Settings: for Observations: 20% w/v HPCD reconstitution (3 mL aliquot)
Procedure: Reconstituting Orbactiv 400 mg (Oritavancin) in 20% w/v HPCD, diluting in saline then adjusting pH. The 50 mg/mL solution of oritavancin in 20% w/v HPCD (described in Table 3) was further diluted in 0.9% saline to 6 mg/mL in a small glass vial. The pH was adjusted using 1N NaOH. NaOH was added to the oritavancin solution in […] and vortexed. Visual observations and pH were recorded (Table 5).
Reconstituting Orbactiv 400 mg (Oritavancin) in 50% w/v HPCD aqueous solution, adjusting pH then diluting in saline. 6.269 g of HPCD was dissolved in 12.538 mL of water to make a 50% w/v solution (pH=7.23). Seven (7) mL of the 50% w/v solution was added to a 400 mg vial of Orbactiv for a target oritavancin concentration of 57.14 mg/mL. […] A 2 mL aliquot of 57.14 mg/mL was removed from the vial and placed in a small glass vial. The pH was adjusted to 6.5 using 1N NaOH. NaOH was added to the oritavancin solution in 5 μL increments and vortexed. Visual observations and pH were recorded (Table 6).
(§1) Reconstituting Orbactiv 400 mg (Oritavancin) in 50% w/v aqueous HPCD, adjusting pH then diluting in saline. 6.112 g of HPCD was dissolved in 12.224 mL of water to make a 50% w/v solution (pH=6.74). Seven (7) mL of the 50% w/v HPCD solution was added to a 400 mg vial of Orbactiv for a target oritavancin concentration of 57.14 mg/mL. […] A 3 mL aliquot of 57.14 mg/mL was removed from the vial and placed in a small glass vial. The pH was adjusted to 7 using 1N NaOH. NaOH was added to the oritavancin solution in 5 μL increments and vortexed. Visual observations and pH were recorded (Table 8).
as §1, with “20%” for “50%”, “3.555” for “6.112”, “17.775” for “12.224”, “(pH=6.88).” for “(pH=6.74).”, “recorded.” for “recorded”, “10).” for “8).”

CN[C@H](CC(C)C)C(=O)N[C@H]1C(=O)N[C@@H](CC(N)=O)C(=O)N[C@H]2C(=O)N[C@H]3C(=O)N[C@H](C(=O)N[C@H](C(=O)O)c4cc(O)cc(O)c4-c4cc3ccc4O)[C@H](O[C@H]3C[C@](C)(N)[C@@H](O)[C@H](C)O3)c3ccc(c(Cl)c3)Oc3cc2cc(c3O[C@@H]2O[C@H](CO)[C@@H](O)[C@H](O)[C@H]2O[C@H]2C[C@](C)(NCc3ccc(-c4ccc(Cl)cc4)cc3)[C@@H](O)[C@H](C)O2)Oc2ccc(cc2Cl)[C@H]1O [Oritavancin]
pH to which solution could be adjusted without any sign of precipitation (57 mg/mL in 20% w/v aqueous HPCD, over 24 hours): 7
pH to which solution could be adjusted without any sign of precipitation (57 mg/mL in 50% w/v aqueous HPCD, over 24 hours): 7
pH to which solution could be adjusted without any sign of precipitation (57 mg/mL in 50% w/v aqueous HPCD, over an hour): 6.3
Observations (1N NaOH 0 μL, pH 3.95, oritavancin 57.14 mg/mL): Clear, colorless solution.
Observations (1N NaOH 5 μL, pH 4.11, oritavancin 57.04 mg/mL): Clear, colorless solution
Observations (1N NaOH 10 μL, pH 4.31, oritavancin 56.94 mg/mL): Clear, colorless solution
Observations (1N NaOH 15 μL, pH 4.68, oritavancin 56.84 mg/mL): Clear, colorless solution
Observations (1N NaOH 20 μL, pH 4.89, oritavancin 56.74 mg/mL): Clear, colorless solution
Observations (1N NaOH 25 μL, pH 5.19, oritavancin 56.64 mg/mL): Clear, colorless solution
Observations (1N NaOH 30 μL, pH 5.29, oritavancin 56.54 mg/mL): Clear, colorless solution
Observations (1N NaOH 35 μL, pH 5.45, oritavancin 56.44 mg/mL): Clear, colorless solution.
Observations (1N NaOH 40 μL, pH 5.57, oritavancin 56.34 mg/mL): Clear, colorless solution
Observations (1N NaOH 45 μL, pH 5.63, oritavancin 56.23 mg/mL): Clear, colorless solution
Observations (1N NaOH 50 μL, pH 5.69, oritavancin 56.13 mg/mL): Clear, colorless solution
Observations (1N NaOH 55 μL, pH 5.82, oritavancin 56.03 mg/mL): Clear, colorless solution
Observations (1N NaOH 60 μL, pH 5.87, oritavancin 55.92 mg/mL): Clear, colorless solution
Observations (1N NaOH 65 μL, pH 5.95, oritavancin 55.82 mg/mL): Clear, colorless solution.
Observations (1N NaOH 70 μL, pH 6.01, oritavancin 55.71 mg/mL): Clear, colorless solution
Observations (1N NaOH 75 μL, pH 6.06, oritavancin 56.60 mg/mL): Clear, colorless solution
Observations (1N NaOH 80 μL, pH 6.10, oritavancin 55.49 mg/mL): Clear, colorless solution
Observations (1N NaOH 85 μL, pH 6.18, oritavancin 55.38 mg/mL): Clear, colorless solution
Observations (1N NaOH 90 μL, pH 6.20, oritavancin 55.28 mg/mL): Clear, colorless solution
Observations (1N NaOH 95 μL, pH 6.24, oritavancin 55.17 mg/mL): Clear, colorless solution
Observations (1N NaOH 100 μL, pH 6.28, oritavancin 55.06 mg/mL): Clear, colorless solution
Observations (1N NaOH 105 μL, pH 6.34, oritavancin 54.95 mg/mL): Clear, colorless solution
Observations (1N NaOH 110 μL, pH 6.38, oritavancin 54.85 mg/mL): Clear, colorless solution
Observations (1N NaOH 115 μL, pH 6.44, oritavancin 54.74 mg/mL): Clear, colorless solution
Observations (1N NaOH 120 μL, pH 6.49, oritavancin 54.64 mg/mL): Clear, colorless solution.
Observations (1N NaOH 125 μL, pH 6.52, oritavancin 54.52 mg/mL): Clear, colorless solution
Observations (1N NaOH 130 μL, pH 6.54, oritavancin 54.41 mg/mL): Clear, colorless solution
Observations (1N NaOH 135 μL, pH 6.57, oritavancin 54.30 mg/mL): Clear, colorless solution
Observations (1N NaOH 140 μL, pH 6.62, oritavancin 54.19 mg/mL): Clear, colorless solution
Observations (1N NaOH 145 μL, pH 6.65, oritavancin 54.09 mg/mL): Clear, colorless solution
Observations (1N NaOH 150 μL, pH 6.69, oritavancin 53.97 mg/mL): Clear, colorless solution
Observations (1N NaOH 155 μL, pH 6.72, oritavancin 53.86 mg/mL): Clear, colorless solution
Observations (1N NaOH 160 μL, pH 6.76, oritavancin 53.75 mg/mL): Clear, colorless solution.
Observations (1N NaOH 165 μL, pH 6.80, oritavancin 53.63 mg/mL): Clear, colorless solution
Observations (1N NaOH 170 μL, pH 6.82, oritavancin 53.51 mg/mL): Clear, colorless solution
Observations (1N NaOH 175 μL, pH 6.86, oritavancin 53.40 mg/mL): Clear, colorless solution
Observations (1N NaOH 180 μL, pH 6.90, oritavancin 53.28 mg/mL): Clear, colorless solution
Observations (1N NaOH 185 μL, pH 6.93, oritavancin 53.17 mg/mL): Clear, colorless solution
Observations (1N NaOH 190 μL, pH 6.98, oritavancin 53.05 mg/mL): Clear, colorless solution
Observations (1N NaOH 195 μL, pH 7.03, oritavancin 52.94 mg/mL): Clear, colorless solution.
